Test: Inhibition of protein kinase C

IC50: < 50 µg/mL
Compound: COc1ccc(-c2coc3cc(O)cc(O)c3c2=O)cc1 [BIOCHANIN]

Reference: ChEMBL document CHEMBL1159241, “Dihydrolicoisoflavone, a new isoflavanone from Swartzia polyphylla” (J Nat Prod, 1995)
